Reference: US7691857B2, “Muscarinic agents as therapeutic compounds” (Muscagen Limited, priority 2003, dated 2010)

Biological target: M1 receptor (Oryctolagus cuniculus, UniProt G1SR55)
Assay: Functional assay of M1 receptor activity, electrically stimulated rabbit vas deferens preparation
Description: M1 receptor activity of a compound of the invention may be examined with the rabbit vas deferens using a method developed from that described previously (Dorje F, Rettenmayr N, Mutschler E and Lambrecht G, Eur J Pharmacol 1991, 203, 417-420). The tissue is stimulated electrically to contract and the conditions are optimized so that M1 receptor agonists produce a concentration-related inhibition of contraction height. Any activity at M2 receptors is indicated by an increase in the contraction height. M2 receptor activity may also be recorded from increases in contraction of the guinea-pig paced left atria. M3 receptor activity is measured from the contraction of the guinea-pig ileum. […]
Initial evaluation of the test compound is by assay of functional tissue responses. This has the advantage that it readily discriminates between agonist, partial agonist and antagonist activity. […]
Male New Zealand white rabbits (1.47-3.4 Kg) are killed by a blow to the back of the head and vasa deferentia removed, dissected free of connective tissue and divided into prostatic and epididmyal portions. […] Isometric tension is recorded by computer at a sampling rate of 100 Hz, using Powerlab/200 (ADInstruments) software and MacLab bridge amplifiers. […]

Chain of M1 receptor (G1SR55 1-460): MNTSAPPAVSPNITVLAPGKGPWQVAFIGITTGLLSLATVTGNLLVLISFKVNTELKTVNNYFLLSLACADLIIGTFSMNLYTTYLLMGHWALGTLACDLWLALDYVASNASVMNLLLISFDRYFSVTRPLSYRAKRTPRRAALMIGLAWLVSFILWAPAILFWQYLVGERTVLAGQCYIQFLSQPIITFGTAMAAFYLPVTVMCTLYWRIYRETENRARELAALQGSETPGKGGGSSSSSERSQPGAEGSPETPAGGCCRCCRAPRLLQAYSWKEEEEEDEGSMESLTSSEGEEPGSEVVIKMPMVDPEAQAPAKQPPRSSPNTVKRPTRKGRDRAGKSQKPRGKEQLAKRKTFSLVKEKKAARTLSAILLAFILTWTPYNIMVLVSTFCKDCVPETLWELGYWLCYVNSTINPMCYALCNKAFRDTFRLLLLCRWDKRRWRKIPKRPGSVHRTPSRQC

EC50 (M1 agonism, inhibition of twitch height in field-stimulated rabbit vas deferens, read-out: potency (EC50 value)): 0.1 µM
partial M1 agonist (extent of agonism) (rabbit vas deferens functional tissue response): 50%
SMILES: COCC1CNCC2(C3CCC3)C1OC(=O)N2Cc1ccccc1 (centres unmarked) [Example 1, 3-Benzyl-3a-cyclobutyl-7-methoxymethyl-2-oxo-octahydro-oxazolo[4,5-c]pyridin-5-ium]
